PubChem BioAssay (NCI)
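Test compounds were applied to cells in 96-well plates for 48 hours at 5 doses. TGI: total growth inhibition.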

Assays:
Test in all cases: inhibition of tumour cell growth, NCI panel, 48 h
CAKI-1 renal = system: CAKI-1 renal
CCRF-CEM leukemia = system: CCRF-CEM leukemia
DLD-1 colon = system: DLD-1 colon
DMS 114 small cell lung = system: DMS 114 small cell lung
DMS 273 small cell lung = system: DMS 273 small cell lung
EKVX NSCLC = system: EKVX NSCLC
HCC-2998 colon = system: HCC-2998 colon
LXFL 529 NSCLC = system: LXFL 529 NSCLC
PC-3 prostate = system: PC-3 prostate
SN12C renal = system: SN12C renal
SW-620 colon = system: SW-620 colon
U251 CNS = system: U251 CNS

Compound | TGI (CAKI-1 renal) [µM] | TGI (CCRF-CEM leukemia) [µM] | TGI (DLD-1 colon) [µM] | TGI (DMS 114 small cell lung) [µM] | TGI (DMS 273 small cell lung) [µM] | TGI (EKVX NSCLC) [µM] | TGI (HCC-2998 colon) [µM] | TGI (LXFL 529 NSCLC) [µM] | TGI (PC-3 prostate) [µM] | TGI (SN12C renal) [µM] | TGI (SW-620 colon) [µM] | TGI (U251 CNS) [µM]
Nc1nc(N)c(CCCCc2ccccc2)c(N)n1 | > 100 | > 100 | > 100 | > 100 | > 100 | > 100 | > 100 | > 100 | > 100 | > 100 | > 100 | > 100
CCOc1ccc(NC(=O)CCc2nnc(SC)o2)cc1 | > 100 | > 100 | > 100 | > 100 | > 100 | > 100 | > 100 | > 100 |  | > 100 | > 100 | > 100
COc1ccc(-c2[nH]c3ccccc3c2CCNS(=O)(=O)c2ccc(C)cc2)cc1 | > 10 | > 10 | > 10 | > 10 | > 10 | > 10 | > 10 | > 10 |  | > 10 | > 10 | > 10
Oc1cc(-n2cccn2)c(O)cc1-n1cccn1 | 53.8 | 19.6 | > 94.8 | > 67.6 | > 58.2 | > 83.3 | > 100 | 34.7 | 44.8 | 37.8 | 42.9 | > 78.2
COC(=O)C(C(=O)C(=O)Nc1ccc([N+](=O)[O-])cc1)c1nc2ccc([N+](=O)[O-])cc2[nH]c1=O (stereo not drawn) | > 100 | > 100 | > 100 | > 100 | > 100 | > 100 | > 100 | > 100 |  | > 100 | > 100 | > 100
N#CCN1C(=O)c2cc([N+](=O)[O-])cc3cc([N+](=O)[O-])cc(c23)C1=O | 96.6 | 17.7 | 29.4 | 37.5 | > 100 | 55.8 | 29.2 | > 50.6 |  | 27.9 | 20.3 | > 55.6
O=C(/C=C/c1ccc(Cl)c(Cl)c1)c1cccc2ccccc12 | 20.4 | 7.18 | 11.4 | 9.51 | 14.7 | 32.5 | 22.4 | 6.64 |  | 31.8 | 3.08 | 6.89
O=C(Cc1nc2ccccc2o1)C(=O)Nc1cccc(C(F)(F)F)c1 | > 100 | > 100 | > 100 | > 100 | > 100 | > 100 | > 100 | > 100 |  | > 100 | > 100 | > 100
O=C1OC(=O)c2c1c(-c1ccccc1)nc1ccccc21 | > 100 | > 100 | > 100 | > 100 | > 100 | > 100 | > 100 | > 100 |  | > 100 | > 100 | > 100
N[C@H](COCc1ccccc1)c1ccccc1 | 61.2 | 56.6 | > 100 | 56.3 | 50 | > 100 | > 91.7 | 51.5 |  | > 81.6 | > 72.3 | > 100
CC(C)(C)c1cc2nc(c1)C(C(F)(F)F)(C(F)(F)F)OB(Br)OC2(C(F)(F)F)C(F)(F)F | 1.18 | 0.677 | 12.8 | 0.421 | 0.107 | 0.727 | 11.4 | 13.9 |  | 7.26 | 15.8 | 1.37
